Results from ChEMBL document CHEMBL5584247, “Stereochemical properties of quazepam and its affinity for the GABAA receptor” (Bioorg Med Chem Lett, 2024).
Where “and” joins values, the source holds several entries; their conditions need not be identical. Identical values can stand only once.

Key:
[1] = target: T1, GABA-A receptor; anion channel (Homo sapiens) (UniProt P14867+P47870+P18507+P28472+P48169+Q99928+Q9UN88+P34903+O00591+O14764+Q8N1C3+P18505+P78334+P47869+P31644+Q16445); test: Inhibition of GABAA receptor (unknown origin) at 10 uM relative to control; assay type: protein-complex assay
[2] = target: T1, GABA-A receptor; anion channel (Homo sapiens); test: Inhibition of GABAA receptor (unknown origin) at 50 uM relative to control; assay type: protein-complex assay

## Cc1cc(Cl)cc2c1N(CC(F)(F)F)C(=S)CN=C2c1ccccc1F
[1]
  inhibition: 24% and 17% and 26%
[2]
  inhibition: 35% and 31%
[2]; INHIBITOR
  inhibition: 53%
